Results as given in patent publication US20220098184A1, “SOLID DISPERSION FORMULATIONS OF AN FXR AGONIST” (Terms Pharmaceuticals, Inc., priority 2020, published 2022).

Assays:
[1] = BCS classification / aqueous solubility; format: physicochemical
[2] = Solubility study in phosphate buffer (pH=6.8), agitated at 37° C., filtrate measured by UV-vis; format: physicochemical; details: phosphate buffer pH 6.8, 37° C.
Experimental: Compound I, Compound U/Kollidon® VA 64 solid dispersion prepared according to Example 1, and Compound U/Soluplus® solid dispersion prepared according to Example 1 were dissolved in phosphate buffer (pH=6.8) and the resulting mixtures were agitated at 37° C. Samples were taken at 15 minutes, 30 minutes, 60 minutes, 120 minutes, 4 hours, 8 hours, and 24 hours.

[3] = Tissue distribution of Compound I (liver vs other tissues); format: in vivo; details: liver relative to plasma, kidney, lungs, heart, and skin, read-out: Concentration in the liver relative to other tissues
[4] = Phase 1 randomized, open-label study in healthy subjects (PK, safety and tolerability); format: in vivo, human; details: all treatment groups
Experimental: A Phase 1 randomized, open-label study was conducted in 16 healthy subjects. PK samples of Compound I were obtained up to 72 hours after single oral administration of: 1) 5-mg strength and 25-mg strength tablets (prepared according to Example 3) in 16 fasted subjects; 2) 25-mg strength capsule (containing 25 mg Compound I not in a solid dispersion) in 8 fasted subjects; and 3) 5-mg strength tablet (prepared according to Example 3) in 8 subjects after a high-fat, high calorie meal. Safety and tolerability of the tablets and capsule were also assessed.

## Cn1cc(C(=O)O)c2ccc(N3CCC(OCc4c(-c5c(Cl)cccc5Cl)noc4C4CC4)CC3)cc21 [Compound I, 6-(4-((5-cyclopropyl-3-(2,6-dichlorophenyl)isoxazol-4-yl)methoxy)piperidin-1-yl)-1-methyl-1H-indole-3-carboxylic acid]
[1]
  Aqueous solubility (in words): low aqueous solubility
  BCS class: BCS class II
[2]
  Solubility in phosphate buffer (in words): low solubility
[2]; 15 min
  Concentration of Compound I: 86 ng/mL
[2]; 30 min
  Concentration of Compound I: 166 ng/mL
[2]; 60 min
  Concentration of Compound I: 172 ng/mL
[2]; 120 min
  Concentration of Compound I: 188 ng/mL
[2]; 4 hrs
  Concentration of Compound I: 166 ng/mL
[2]; 8 hrs
  Concentration of Compound I: 207 ng/mL
[2]; 24 hrs
  Concentration of Compound I: 250 ng/mL
[3]
  Kp: ~20
[4]
  Safety and tolerability: safe and well tolerated
